# Assay results published in BindingDB's records for doi:10.1021/jm950589q (Ibm Thomas J. Watson Research Center, 1996).
# Experiment: Inhibitory concentration against HIV-1 replication by interfering with virus reverse transcriptase
row,SMILES,IC50 [µM]
1,"CC(C)=CCN1Cc2cccc3[nH]c(=O)n(c23)C(C)C1C (centres undefined) [8,9-Dimethyl-7-(3-methyl-but-2-enyl)-6,7,8,9-tetrahydro-2H-2,7,9a-triaza-benzo[cd]azulen-1-one]",56.7
2,"CC(C)=CCN1CCn2c(=O)[nH]c3cccc(c32)C1C (centres undefined) [6-Methyl-7-(3-methyl-but-2-enyl)-6,7,8,9-tetrahydro-2H-2,7,9a-triaza-benzo[cd]azulen-1-one]",12.1
3,"CC(C)=CCN1CCn2c(=S)[nH]c3cc(Cl)cc(c32)C1 [4-Chloro-7-(3-methyl-but-2-enyl)-6,7,8,9-tetrahydro-2H-2,7,9a-triaza-benzo[cd]azulene-1-thione]",0.16
4,"CC(C)=CCN1[C@H](C)Cn2c(=S)[nH]c3cc(Cl)cc(c32)[C@@H]1C [(6S,8R)-4-Chloro-6,8-dimethyl-7-(3-methyl-but-2-enyl)-6,7,8,9-tetrahydro-2H-2,7,9a-triaza-benzo[cd]azulene-1-thione]",0.48
5,"CC(C)=CCN1CCn2c(=S)[nH]c3ccc(Cl)c(c32)C1 [5-Chloro-7-(3-methyl-but-2-enyl)-6,7,8,9-tetrahydro-2H-2,7,9a-triaza-benzo[cd]azulene-1-thione]",0.046
6,"C=C(C)CN1Cc2cccc3[nH]c(=O)n(c23)C(CCC)C1 (centres undefined) [7-(2-Methyl-allyl)-9-propyl-6,7,8,9-tetrahydro-2H-2,7,9a-triaza-benzo[cd]azulen-1-one]",48.1
7,"CC(C)=CCN1Cc2c(Cl)ccc3[nH]c(=S)n(c23)C[C@@H]1C [5-Chloro-8-methyl-7-(3-methyl-but-2-enyl)-6,7,8,9-tetrahydro-2H-2,7,9a-triaza-benzo[cd]azulene-1-thione]",0.005
8,CC(C)=CCN1Cc2cc(Cl)cc3[nH]c(=O)n(c23)CC1C (centres undefined),0.18
9,"C=C(C)CN1Cc2cccc3[nH]c(=O)n(c23)C(C)C1 (centres undefined) [9-Methyl-7-(2-methyl-allyl)-6,7,8,9-tetrahydro-2H-2,7,9a-triaza-benzo[cd]azulen-1-one]",32.1
10,"CC(C)=CCN1[C@H](C)Cn2c(=S)[nH]c3cccc(c32)[C@@H]1C [(6S,8R)-6,8-Dimethyl-7-(3-methyl-but-2-enyl)-6,7,8,9-tetrahydro-2H-2,7,9a-triaza-benzo[cd]azulene-1-thione]",1.15
11,C=C(C)CN1Cc2cccc3[nH]c(=O)n(c23)CC1C (centres undefined),34.7
12,C=C(C)CN1Cc2cccc3[nH]c(=S)n(c23)CC1C (centres undefined),0.026
13,"CC(C)=CCN1CCn2c(=S)[nH]c3cccc(c32)C1C (centres undefined) [6-Methyl-7-(3-methyl-but-2-enyl)-6,7,8,9-tetrahydro-2H-2,7,9a-triaza-benzo[cd]azulene-1-thione]",0.078
14,"CC(C)=CCN1CCn2c(=S)[nH]c3cc(Cl)cc(c32)C1C (centres undefined) [4-Chloro-6-methyl-7-(3-methyl-but-2-enyl)-6,7,8,9-tetrahydro-2H-2,7,9a-triaza-benzo[cd]azulene-1-thione]",0.023

# More lines, in order of falling IC50, values ahead:
row,IC50 [µM],SMILES
1,25.8,"CC(C)=CCN1CC(C)n2c(=S)[nH]c3cccc(c32)C1C (centres undefined) [6,9-Dimethyl-7-(3-methyl-but-2-enyl)-6,7,8,9-tetrahydro-2H-2,7,9a-triaza-benzo[cd]azulene-1-thione]"
2,13.4,"CC1C(C)n2c(=S)[nH]c3cccc(c32)CN1CC1CC1 (centres undefined) [7-Cyclopropylmethyl-8,9-dimethyl-6,7,8,9-tetrahydro-2H-2,7,9a-triaza-benzo[cd]azulene-1-thione]"
3,12.6,"C=C(C)CN1Cc2cccc3[nH]c(=O)n(c23)C(C(C)C)C1 (centres undefined) [9-Isopropyl-7-(2-methyl-allyl)-6,7,8,9-tetrahydro-2H-2,7,9a-triaza-benzo[cd]azulen-1-one]"
4,3.32,CC(C)=CCN1Cc2cccc3[nH]c(=O)n(c23)CC1C (centres undefined)
5,2.22,"CC(C)=CCN1Cc2cccc3[nH]c(=S)n(c23)C(C)C1C (centres undefined) [8,9-Dimethyl-7-(3-methyl-but-2-enyl)-6,7,8,9-tetrahydro-2H-2,7,9a-triaza-benzo[cd]azulene-1-thione]"
6,0.67,"C=C(C)CN1Cc2cc(Cl)cc3[nH]c(=S)n(c23)C(C)C1 (centres undefined) [4-Chloro-9-methyl-7-(2-methyl-allyl)-6,7,8,9-tetrahydro-2H-2,7,9a-triaza-benzo[cd]azulene-1-thione]"
7,0.23,"CC(C)=CCN1[C@H](C)Cn2c(=O)[nH]c3cc(Cl)cc(c32)[C@@H]1C [(6S,8R)-4-Chloro-6,8-dimethyl-7-(3-methyl-but-2-enyl)-6,7,8,9-tetrahydro-2H-2,7,9a-triaza-benzo[cd]azulen-1-one]"
8,0.16,"CC(C)=CCN1CCn2c(=O)[nH]c3cc(Cl)cc(c32)C1C (centres undefined) [4-Chloro-6-methyl-7-(3-methyl-but-2-enyl)-6,7,8,9-tetrahydro-2H-2,7,9a-triaza-benzo[cd]azulen-1-one]"
9,0.145,"CC(C)=CCN1CCn2c(=O)[nH]c3ccc(Cl)c(c32)C1C (centres undefined) [5-Chloro-6-methyl-7-(3-methyl-but-2-enyl)-6,7,8,9-tetrahydro-2H-2,7,9a-triaza-benzo[cd]azulen-1-one]"
10,0.097,"CC(C)=CCN1Cc2cccc3[nH]c(=S)n(c23)C[C@@H]1C [(11S)-11-methyl-10-(3-methylbut-2-en-1-yl)-1,3,10-triazatricyclo[6.4.1.0^{4,13}]trideca-4(13),5,7-triene-2-thione]"
11,0.06,CC1Cn2c(=S)[nH]c3cccc(c32)CN1CC1CC1 (centres undefined)
12,0.043,CC(C)=CCN1Cc2cc(Cl)cc3[nH]c(=S)n(c23)C[C@@H]1C
13,0.042,"CC(C)=CCN1[C@H](C)Cn2c(=S)[nH]c3cccc(c32)[C@H]1C [(6R,8R)-6,8-Dimethyl-7-(3-methyl-but-2-enyl)-6,7,8,9-tetrahydro-2H-2,7,9a-triaza-benzo[cd]azulene-1-thione]"
14,0.034,"CC1Cn2c(=S)[nH]c3cc(Cl)cc(c32)CN1CC1CC1 (centres undefined) [4-Chloro-7-cyclopropylmethyl-8-methyl-6,7,8,9-tetrahydro-2H-2,7,9a-triaza-benzo[cd]azulene-1-thione]"
15,0.012,"CC(C)=CCN1CCn2c(=S)[nH]c3ccc(Cl)c(c32)C1C (centres undefined) [5-Chloro-6-methyl-7-(3-methyl-but-2-enyl)-6,7,8,9-tetrahydro-2H-2,7,9a-triaza-benzo[cd]azulene-1-thione]"
